Results: paper PMC10418970, “Effective and Selective Ru(II)-Arene Complexes Containing 4,4′-Substituted 2,2′ Bipyridine Ligands Targeting Human Urinary Bladder Cancer Cells” (International Journal of Molecular Sciences, 2023)

Columns and labels:
HepG-2-hepatic cells = assay: MTT cell proliferation assay, HepG-2; format: cell-based, human; conditions: 24 h incubation
Vero cells = assay: MTT cell proliferation assay, Vero; format: cell-based, African green monkey; conditions: 24 h incubation; healthy cells
[1] = system: MCF-10a-breast epithelial cells; assay: MTT cell proliferation assay, MCF-10a; format: cell-based, human; conditions: 24 h incubation; healthy cells
T24-bladder cells = assay: MTT cell proliferation assay, T24; format: cell-based, human; conditions: 24 h incubation
[2] = system: EA.hy926 endothelial cells; assay: MTT cell proliferation assay, EA.hy926; format: cell-based, human; conditions: 24 h incubation
[3] = molecular target: T1, Bovine serum albumin (BSA) (Bos taurus, UniProt P02769); assay: BSA fluorescence titration (Stern-Volmer, Scatchard); format: binding; conditions: for number of binding sites (n) on BSA: Scatchard equation; for BSA quenching constant Kq: [BSA] 1 μM, complex 0-20 μM, phosphate buffer pH 7.2
T1 construct: purchased Sigma Aldrich
Source text: To explore the mode of complex-protein interaction, we monitor the BSA fluorescence quenching at […] by addition of increasing amounts of 1–7 to a fixed quantity of BSA (Figure S7). […] The molar absorptivity of tyrosine and phenylalanine are 10- and 200-fold weaker than tryptophan, respectively, and are ignored in the modelling. […] The complex binding-induced fluorescence quenching is described by the linear Stern–Volmer relationship (Figure 12A) to obtain the quenching constant Kq (see SI for details). Further, the equilibrium binding constant (Kb) of the complex to BSA and the number of binding sites (n) are obtained by casting the fluorescence intensity in the absence of quencher (F^0) and quencher concentration [Q] dependent F into the Scatchard equation [35]: log [(F^0− F)/F] = log Kb + n log[Q], as shown in Figure 12B.
4 Interaction of complexes with Bovine serum albumin
4.1 Fluorescence titration
The interaction of complexes with BSA was studied using fluorescence spectra, recorded at a fixed excitation wavelength corresponding to BSA at 280 nm and monitoring the emission at 335 nm. Stock solution of BSA were prepared by dissolving commercial BSA in 50mM phosphate buffer (pH 7.2) and stored at 4 οC for further use.
Concentrated stock solution of each test compound were prepared by dissolving it in DMF-phosphate buffer (5:95) and diluted with phosphate buffer to get required concentrations. For the fluorescence measurements, 2.5 mL solution of BSA was titrated with successive additions of […] stock solution of complexes (0-20 µM) […]
Figure S7. Fluorescence quenching curves of BSA in the absence and presence of complexes 1-7. […]

T24 cells = assay: Flow cytometry FITC Annexin V apoptosis assay; format: cell-based, human; conditions: at IC50 concentration (1: […]; 2: 14.5 μM)
Protocol: Figure S10. Cytotoxic effects of complexes ( 1-7) against (A) EA.hy-926, (B) HepG-2, (C) T24, (D) normal kidney (Vero) cells
and (E) MCF-10a-breast epithelial . Data expressed in SD±mean with three replicates.
After 24 h incubation, control and treated cells were stained with acriddine
orange (AO)/ethidium bromide (EB) and incubated for 10 min. The images were taken immediately under fluorescent
8. Flow cytometry studies
The cell apoptotic rate was determined by flow cytometry analysis with the fluorescein isothiocyanate (FITC)
Annexin V apoptosis detection kit (Multi Sciences, China). T24 cancer cells were collected by trypsinization, washed
twice and resuspended in […], 1 × binding buffer with […] of FITC Annexin V and […] of PI. After incubation for
15 min, the samples were subjected to analysis by flow cytometry. The results were analysed with the BD FACS Calibur™
(1 picture or pasted object on this page, not shown here)

EB-CTDNA adduct = assay: EB/CTDNA fluorescence competition (quenching); format: binding, calf; conditions: [DNA] 5 μM, [EB] 5 μM, complex 0-50 μM
Protocol: To learn more about the binding properties of 1–7 with CTDNA, the fluorescence competition technique is employed. EB is an orange fluorescent dye and an intercalating agent for DNA.
3.2 Fluorescence titration experiments
The displacement of the EB-bound was obtained by
treated with a saturating ethidium bromide 5 µM.
Figure S5. […] [DNA]= 5 µM,
[EB] = 5 µM and [complex] = 0˗50 µM. […]

[4] = Shake-flask water-octanol Log p; conditions: n-octanol / water containing 0.45% sodium chloride, 0.5 mM, 37 °C
Protocol: The complex was dissolved in a mixture with equal volumes of pre-saturated n-octanol and water to a final concentration of 0.5 mM. The mixture was shaken at 250 rpm for 24 h at 37 °C and then centrifuged at 3000 rpm for 10 min. The complex concentration (C) in each phase was measured by UV-Vis spectroscopy and used to calculate Log p, according to the formula Log p = log (Coctanol/Cwater).

T1 sequence (P02769 25-607): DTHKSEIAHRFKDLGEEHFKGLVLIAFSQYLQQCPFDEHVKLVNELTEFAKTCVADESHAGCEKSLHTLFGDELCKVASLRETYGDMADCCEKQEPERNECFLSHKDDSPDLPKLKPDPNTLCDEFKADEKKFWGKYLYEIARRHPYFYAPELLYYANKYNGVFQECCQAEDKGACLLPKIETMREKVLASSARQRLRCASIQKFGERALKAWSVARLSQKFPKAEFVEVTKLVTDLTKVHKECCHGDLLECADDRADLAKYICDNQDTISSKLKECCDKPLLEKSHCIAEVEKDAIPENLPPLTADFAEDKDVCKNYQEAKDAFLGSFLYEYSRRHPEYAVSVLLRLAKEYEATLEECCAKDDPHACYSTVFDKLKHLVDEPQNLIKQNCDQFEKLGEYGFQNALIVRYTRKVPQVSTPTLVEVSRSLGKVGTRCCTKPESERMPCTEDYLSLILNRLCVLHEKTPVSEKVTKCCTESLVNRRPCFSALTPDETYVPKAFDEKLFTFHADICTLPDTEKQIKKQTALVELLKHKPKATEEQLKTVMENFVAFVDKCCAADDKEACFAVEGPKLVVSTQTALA

## N.N.[Cl][Pt][Cl] [Cisplatin, reference compound]
HepG-2-hepatic cells
  IC50: 49.1 µM
Vero cells
  IC50: 33.7 µM
[1]
  IC50: 29.1 µM
T24-bladder cells
  IC50: > 50 µM
[2]
  IC50: 22.9 µM

## Cc1ccc(C(C)C)cc1.O=C(O)c1ccnc(-c2cc(C(=O)O)ccn2)c1.[Cl-].[Cl-].[Ru+2] [Complex 2, [Ru-η^6-p-cymene-(4,4′-(COOH)2bipy)Cl]Cl]
HepG-2-hepatic cells
  IC50: > 50 µM
[3]
  number of binding sites (n) on BSA: 1.2
  BSA quenching constant Kq: 6.446 × 10^4 10^4 M^−1
Vero cells
  IC50: > 50 µM
T24 cells
  apoptotic rate (late + early): 18.24%
  early apoptosis (Q3): 10.9%
  late apoptosis (Q2): 7.34%
EB-CTDNA adduct
  Stern–Volmer quenching constant Kq (EB/CTDNA): 4.89 10^4 M^−1
[4]
  Log p Exp. Shake Flask: −1.65
[1]
  IC50: > 50 µM
Solubility (observation)
  solubility: more soluble in high polar organic solvents
T24-bladder cells
  IC50: 14.5 µM
[2]
  IC50: > 50 µM

## COC(=O)c1ccnc(-c2cc(C(=O)OC)ccn2)c1.Cc1ccc(C(C)C)cc1.[Cl-].[Cl-].[Ru+2] [Complex 3, [Ru-η^6-p-cymene-(4,4′-(COOCH3)2bipy)Cl]Cl]
HepG-2-hepatic cells
  IC50: > 50 µM
[3]
  number of binding sites (n) on BSA: 1.0
  BSA quenching constant Kq: 3.622 × 10^4 10^4 M^−1
Vero cells
  IC50: 45.6 µM
EB-CTDNA adduct
  Stern–Volmer quenching constant Kq (EB/CTDNA): 6.05 10^4 M^−1
  apparent DNA binding constant Kapp: 3.02 10^6 M^−1
[1]
  IC50: > 50 µM
T24-bladder cells
  IC50: 21.2 µM
[2]
  IC50: 30.8 µM

## CCOC(=O)c1ccnc(-c2cc(C(=O)OCC)ccn2)c1.Cc1ccc(C(C)C)cc1.[Cl-].[Cl-].[Ru+2] [Complex 4, [Ru-η^6-p-cymene-(4,4′-(COOC2H5)2bipy)Cl]Cl]
HepG-2-hepatic cells
  IC50: 21.1 µM
[3]
  number of binding sites (n) on BSA: 1.0
  BSA quenching constant Kq: 3.777 × 10^4 10^4 M^−1
Vero cells
  IC50: 31.2 µM
EB-CTDNA adduct
  Stern–Volmer quenching constant Kq (EB/CTDNA): 6.36 10^4 M^−1
  apparent DNA binding constant Kapp: 3.18 10^6 M^−1
[4]
  Log p Exp. Shake Flask: 0.88
[1]
  IC50: 40.1 µM
T24-bladder cells
  IC50: 12.3 µM
[2]
  IC50: 32.3 µM

## CC(C)(C)c1ccnc(-c2cc(C(C)(C)C)ccn2)c1.[Cl-].[Cl-].[Ru+2].c1ccccc1 [Complex 5, [Ru-η^6-benzene-(4,4′-(C4H9)2bipy)Cl]Cl]
[4]
  Log p Exp. Shake Flask: 2.45

## COC(=O)c1ccnc(-c2cc(C(=O)OC)ccn2)c1.[Cl-].[Cl-].[Ru+2].c1ccccc1 [Complex 6, [Ru-η^6-benzene-(4,4′-(COOCH3)2bipy)Cl]Cl]
HepG-2-hepatic cells
  IC50: 14.5 µM
[3]
  number of binding sites (n) on BSA: 1.0
  BSA quenching constant Kq: 3.103 × 10^4 10^4 M^−1
Vero cells
  IC50: 49.2 µM
EB-CTDNA adduct
  Stern–Volmer quenching constant Kq (EB/CTDNA): 6.69 10^4 M^−1
  apparent DNA binding constant Kapp: 3.34 10^6 M^−1
[4]
  Log p Exp. Shake Flask: −1.12
[1]
  IC50: > 50 µM
T24-bladder cells
  IC50: 41.2 µM
[2]
  IC50: 49.3 µM

## CCOC(=O)c1ccnc(-c2cc(C(=O)OCC)ccn2)c1.[Cl-].[Cl-].[Ru+2].c1ccccc1 [Complex 7, [Ru-η^6-benzene-(4,4′-(COOC2H5)2bipy)Cl]Cl]
HepG-2-hepatic cells
  IC50: 41.6 µM
[3]
  number of binding sites (n) on BSA: 1.1
  BSA quenching constant Kq: 4.779 × 10^4 10^4 M^−1
Vero cells
  IC50: 33.9 µM
EB-CTDNA adduct
  Stern–Volmer quenching constant Kq (EB/CTDNA): 7.21 10^4 M^−1
  apparent DNA binding constant Kapp: 3.61 10^6 M^−1
[4]
  Log p Exp. Shake Flask: −0.14
[1]
  IC50: > 50 µM
T24-bladder cells
  IC50: 19.8 µM
[2]
  IC50: 23.8 µM
